# Experiments:
# [1] = tested on: KB-3-1 human epidermoid carcinoma cells; test: In vitro cytotoxicity, Microculture Tetrazolium Assay, KB-3-1; type: cell-based; settings: KB-3-1, 4 days incubation; read-out: IC50 (concentration of cytotoxic agent which inhibits proliferation of the treated cells by 50%)
# Description: (§1) Two cell lines were used • 1 murine leukaemia: L1210, • 1 human epidermoid carcinoma: KB-3-1
# (§2) The cells are cultured in RPMI 1640 complete culture medium containing 10% foetal calf serum, 2 mM glutamine, 50 units/ml of penicillin, 50 μg/ml of streptomycin and 10 mM Hepes, pH=7.4. The cells are distributed on microplates and are exposed to the cytotoxic compounds. The cells are then incubated for 2 days (L1210) or 4 days (KB-3-1). The number of viable cells is then quantified by a colorimetric assay, the Microculture Tetrazolium Assay (Cancer Res. 1987, 47, 939–942).
# (§3) The results are expressed in terms of the IC50 (the concentration of cytotoxic agent which inhibits proliferation of the treated cells by 50%).
# [2] = tested on: L1210 murine leukaemia cells; test: In vitro cytotoxicity, Microculture Tetrazolium Assay, L1210; type: cell-based; settings: L1210, 2 days incubation; read-out: IC50 (concentration of cytotoxic agent which inhibits proliferation of the treated cells by 50%)
# Description: as §1, §2, §3
# [3] = tested on: C38 adenocarcinoma of the colon; test: In vivo anti-tumour activity with respect to C38 adenocarcinoma of the colon; settings: i.v. once per week for 3 weeks (days 10, 17, 24), s.c. C38 tumour in B6D2F1 mice
# Description: Anti-tumour Activity with Respect to C38 Adenocarcinoma of the Colon
# Tumour fragments of C38 adenocarcinoma of the colon weighing approximately 30 mg were implanted under the skin of B6D2F1 mice (Iffa Credo, France) on day 0.
# After growth of the tumour, the mice were divided into control (18 animals) and treated (6 or 7 animals) groups, which were homogeneous with respect to tumour size. The products were administered by the i.v. route once per week for 3 weeks (on days 10, 17 and 24), at their Maximum Tolerated Dose (MTD), MTD/2 and MTD/4.
# The tumours were measured twice a week and the tumour volumes were calculated according to the following formula: volume (mm^3)=length (mm)×breadth (mm^2)/2. The anti-tumour activity is expressed as % T/C: […]
# V0 and Vt being the initial volume of the tumour and its volume at measurement time t, respectively.
# The optimum dose is the dose giving the lowest T/C value without toxicity (early death or weight loss greater than 20%).
# [4] = general statement, limits bioavailability and i.v. use; cited from earlier work
compound,measurement,setting,value
"COc1cc2c(c3c1c(=O)c1cc4ccccc4cc1n3C)[C@@H](OC(C)=O)[C@@H](OC(=O)C=Cc1ccccc1)C(C)(C)O2 (racemic) [Example 2, (±)-cis-1-Acetoxy-2-cinnamoyloxy-6-methoxy-3,3,14-trimethyl-1,2,3,14-tetrahydro-1H-benzo[b]pyrano[3,2-h]acridin-7-one]",IC50,[1],151 nM
same,IC50,[2],590 nM
"COc1cc2c(c3c1c(=O)c1cc4ccccc4cc1n3C)[C@@H](OC(C)=O)[C@@H](OC(=O)C=Cc1ccc(Cl)c(Cl)c1)C(C)(C)O2 (single isomer, unassigned) [Example 33, (±)-cis-1-Acetoxy-2-(3,4-dichlorocinnamoyloxy)-6-methoxy-3,3,14-trimethyl-1,2,3,14-tetrahydro-1H-benzo[b]pyrano[3,2-h]acridin-7-one (Enantiomer β)]",anti-tumour activity (% T/C),[3]; optimum dose of 4 mg/kg,50%
"COc1cc2c(c3c1c(=O)c1ccccc1n3C)C=CC(C)(C)O2 [acronycine, reference compound]",anti-tumour activity (% T/C),[3]; optimum dose of 100 mg/kg,27%
same,solubility,[4],low

# From US7144891B2, “Benzo[b ]pyrano[3,2- h ]acridin-7-one cinnamate compounds” (Les Laboratoires Servier, priority 2004, dated 2006)
